Among the test systems are KM12 colon; UO-31 renal; OVCAR-8 ovarian; MCF7 breast; IGROV1 ovarian; 786-0 renal; SK-MEL-28 melanoma; SF-539 CNS; OVCAR-4 ovarian; BT-549 breast.
What all share (test): inhibition of tumour cell growth, NCI panel, 48 h

Where “and” joins values, the source holds several entries; their conditions need not be identical. Identical values can stand only once.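 Following 48 hours of exposure in 96-well plates, responses at five concentrations were used to interpolate endpoints linearly. At the GI50, growth is halved. The concentration for full growth arrest is given as TGI.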 Some results are limits rather than exact numbers.

As for `Cc1cccc2c1NC(=O)C2(c1ccc(O)cc1)c1ccc(O)cc1`, the GI50 is 3.68 µM in the experiment with KM12 colon; 13.1 µM in the experiment with UO-31 renal; below 0.0192 µM in the experiment with OVCAR-8 ovarian; 0.0219 µM with MCF7 breast; 0.0634 µM with IGROV1 ovarian; 17.9 µM with 786-0 renal. Besides, the GI50 in the experiment on SK-MEL-28 melanoma was 16.4 µM; in the experiment with SF-539 CNS, 17.7 µM; with OVCAR-4 ovarian, below 0.01 µM; with BT-549 breast, below 0.01 µM. In addition, the TGI with KM12 colon is 23.6 µM; in the experiment on UO-31 renal, 78.8 µM; in the experiment with OVCAR-8 ovarian, 13.7 µM; in the experiment with MCF7 breast, above 59.6 µM; in the experiment on IGROV1 ovarian it was 47.6 µM; in the experiment on 786-0 renal it was 40.1 µM. Also, the TGI with SK-MEL-28 melanoma was 46.5 µM; with SF-539 CNS, 45.8 µM; with OVCAR-4 ovarian, below 0.0174 µM.

For `Cc1nc2sc(C(=O)Nc3cccc(Cl)c3C)c(N)c2cc1C(=O)c1ccccc1`, the GI50 is 0.225 µM in the experiment on KM12 colon; 0.408 µM in the experiment with UO-31 renal; 0.403 µM in the experiment on OVCAR-8 ovarian; 0.168 µM in the experiment on MCF7 breast; 0.419 µM with IGROV1 ovarian; 0.296 µM in the experiment with 786-0 renal. Moreover, the GI50 in the experiment with SK-MEL-28 melanoma was 1.45 µM; with SF-539 CNS, 0.159 µM; in the experiment with OVCAR-4 ovarian, 1.08 µM; with BT-549 breast, 0.355 µM. Also, the TGI with KM12 colon, in the experiment on UO-31 renal, in the experiment with OVCAR-8 ovarian, in the experiment with MCF7 breast, in the experiment on IGROV1 ovarian and in the experiment on 786-0 renal was above 50 µM in each case. Besides, the TGI was above 50 µM with SK-MEL-28 melanoma, 0.915 µM in the experiment on SF-539 CNS, above 50 µM in the experiment on OVCAR-4 ovarian and above 13.6 µM with BT-549 breast.

`CCCN(CCC)c1ccc(/C=N/NC(=O)c2cccnc2)cc1`: the GI50 in the experiment with KM12 colon was 20.3 µM; in the experiment on UO-31 renal, 43.3 µM; in the experiment on OVCAR-8 ovarian, 31.3 µM; in the experiment on MCF7 breast, 20.2 µM; in the experiment on IGROV1 ovarian it was 46.8 µM; with 786-0 renal it was 32.5 µM. Besides, the GI50 in the experiment with SK-MEL-28 melanoma is 33.6 µM; with SF-539 CNS, 18.8 µM; in the experiment with OVCAR-4 ovarian, 35.4 µM; with BT-549 breast, 30.7 µM. In addition, the TGI in the experiment with KM12 colon is above 100 µM; with UO-31 renal it was above 100 µM; in the experiment on OVCAR-8 ovarian, above 100 µM; in the experiment on MCF7 breast it was above 100 µM; with IGROV1 ovarian, above 100 µM; in the experiment with 786-0 renal it was 94.8 µM. The TGI in the experiment with SK-MEL-28 melanoma is above 100 µM; in the experiment on SF-539 CNS, 61.4 µM; in the experiment on OVCAR-4 ovarian it was above 100 µM; in the experiment with BT-549 breast, above 100 µM.

In the case of `COc1cc(C(=O)Nc2cc(O)c(C/C=C(\C)CCC=C(C)C)c(O)c2)cc2c1O[C@]1(C)CC[C@@H](O)C(C)(C)[C@H]1C2`, the GI50 with KM12 colon was 2.39 µM and 1.52 µM; in the experiment with UO-31 renal, 0.0786 µM and 0.237 µM; with OVCAR-8 ovarian it was 4.28 µM and 2.21 µM; in the experiment with MCF7 breast, 0.0507 µM and 0.104 µM; in the experiment with IGROV1 ovarian, 3.37 µM and 0.881 µM; with 786-0 renal, 0.00947 µM and 0.0168 µM. In addition, the GI50 was 0.178 µM and 0.629 µM with SK-MEL-28 melanoma; 0.00623 µM in the experiment on SF-539 CNS; 5.3 µM and 3.14 µM with OVCAR-4 ovarian. Moreover, the TGI with KM12 colon was 12.8 µM; with UO-31 renal it was 0.6 µM and 1.29 µM; in the experiment on OVCAR-8 ovarian it was 31.4 µM; with MCF7 breast, 12.3 µM; in the experiment on IGROV1 ovarian it was 19.5 µM; in the experiment on 786-0 renal, 6.07 µM. In addition, the TGI was 13.8 µM in the experiment with SK-MEL-28 melanoma; 0.411 µM and 0.658 µM in the experiment on SF-539 CNS; 32 µM in the experiment with OVCAR-4 ovarian; 5.23 µM in the experiment on BT-549 breast.

Take `O=C1CCCC(=O)C1C(=O)c1ccc(C(F)(F)F)cc1[N+](=O)[O-]`: the GI50 with KM12 colon, in the experiment with UO-31 renal, with OVCAR-8 ovarian, in the experiment with MCF7 breast, in the experiment on IGROV1 ovarian and in the experiment on 786-0 renal was above 100 µM throughout. The GI50 in the experiment on SK-MEL-28 melanoma, with SF-539 CNS, with OVCAR-4 ovarian and in the experiment on BT-549 breast was above 100 µM in each case. The TGI in the experiment with KM12 colon, in the experiment with UO-31 renal, in the experiment on OVCAR-8 ovarian, in the experiment on MCF7 breast, with IGROV1 ovarian and in the experiment with 786-0 renal was above 100 µM throughout. Moreover, the TGI with SK-MEL-28 melanoma, in the experiment on SF-539 CNS, with OVCAR-4 ovarian and in the experiment on BT-549 breast was above 100 µM throughout.

Take `Nc1ncnc2c1c(C(=O)NO)cn2C1OC(CO)C(O)C1O` (stereo unspecified): the GI50 is 0.267 µM with KM12 colon; 0.368 µM with UO-31 renal; 0.353 µM in the experiment with OVCAR-8 ovarian; 0.213 µM with MCF7 breast; 0.279 µM with IGROV1 ovarian; 0.63 µM with 786-0 renal. Moreover, the GI50 in the experiment on SK-MEL-28 melanoma was 0.479 µM; in the experiment with SF-539 CNS, 0.551 µM; in the experiment with OVCAR-4 ovarian, 0.213 µM; in the experiment on BT-549 breast, 0.426 µM. The TGI in the experiment with UO-31 renal was 3.75 µM; in the experiment on OVCAR-8 ovarian it was above 100 µM; in the experiment with MCF7 breast, 1.69 µM; with 786-0 renal, 14.2 µM; with SK-MEL-28 melanoma it was 3.63 µM; in the experiment with SF-539 CNS, 3.01 µM. In addition, the TGI is 5.61 µM with OVCAR-4 ovarian and 19.2 µM with BT-549 breast.

As to `Cc1[nH]c2ccccc2c1C1=CC(=O)C=CC1=O`, the GI50 with KM12 colon is 12.2 µM; in the experiment with UO-31 renal it was 10.5 µM; in the experiment on OVCAR-8 ovarian it was 13.2 µM; with MCF7 breast it was 9.9 µM; in the experiment with IGROV1 ovarian it was 12 µM; in the experiment on 786-0 renal, 20.1 µM. For the same compound, the GI50 with SK-MEL-28 melanoma is 14.1 µM; with SF-539 CNS it was 14.3 µM; in the experiment with OVCAR-4 ovarian, 4.2 µM; with BT-549 breast it was 11.1 µM. Further, the TGI with KM12 colon is 25.5 µM; in the experiment on UO-31 renal, 23.2 µM; in the experiment on OVCAR-8 ovarian, 34.9 µM; in the experiment on MCF7 breast, 28.8 µM; in the experiment with IGROV1 ovarian, 27.2 µM; with 786-0 renal, 43.3 µM. Further, the TGI in the experiment on SK-MEL-28 melanoma is 27.4 µM; in the experiment with SF-539 CNS it was 28.3 µM; in the experiment with OVCAR-4 ovarian, 15.3 µM; in the experiment on BT-549 breast it was 24.4 µM.

`NCC(=O)NC(CO)C(=O)O` (stereo unspecified): the TGI with KM12 colon, in the experiment with UO-31 renal, in the experiment on OVCAR-8 ovarian, in the experiment with MCF7 breast, with IGROV1 ovarian and in the experiment on 786-0 renal was above 100 µM each time. Further, the TGI in the experiment on SK-MEL-28 melanoma, with SF-539 CNS, in the experiment with OVCAR-4 ovarian and in the experiment with BT-549 breast was above 100 µM each time.

Consider `O=[N+]([O-])c1ccc(NN=C2c3ccccc3Cc3ccccc32)c([N+](=O)[O-])c1`, for which the TGI in the experiment with KM12 colon was 79.9 µM; in the experiment with UO-31 renal it was above 100 µM; in the experiment on OVCAR-8 ovarian it was above 100 µM; in the experiment on MCF7 breast it was above 100 µM; in the experiment on IGROV1 ovarian, above 100 µM; in the experiment on 786-0 renal, above 100 µM. Further, the TGI with SK-MEL-28 melanoma, with SF-539 CNS, in the experiment with OVCAR-4 ovarian and with BT-549 breast was above 100 µM in each case.

In the case of `O=C(O)C1CCCCC1C(=O)Nc1nc2ccccc2[nH]1` (stereo unspecified), the TGI in the experiment with KM12 colon, in the experiment on UO-31 renal, with OVCAR-8 ovarian, in the experiment on MCF7 breast, with IGROV1 ovarian and in the experiment with 786-0 renal was above 100 µM throughout. In addition, the TGI in the experiment on SK-MEL-28 melanoma, in the experiment with SF-539 CNS, in the experiment on OVCAR-4 ovarian and with BT-549 breast was above 100 µM each time.

With `COc1cccc2cc(-c3nc(C4CCC(C(=O)O)CC4)n4ncnc(N)c34)[nH]c12` (stereo unspecified), the GI50 in the experiment with KM12 colon is 0.33 µM and 0.59 µM; in the experiment with UO-31 renal it was 0.129 µM and 0.21 µM; in the experiment with OVCAR-8 ovarian it was 0.371 µM and 0.642 µM; in the experiment with MCF7 breast, 0.155 µM and 0.22 µM; in the experiment with IGROV1 ovarian, 0.192 µM and 0.237 µM; in the experiment on 786-0 renal, 0.344 µM and 0.488 µM. Moreover, the GI50 with SK-MEL-28 melanoma was 0.175 µM and 0.169 µM; in the experiment on SF-539 CNS it was 0.309 µM and 0.516 µM; in the experiment with OVCAR-4 ovarian, 0.155 µM and 0.288 µM; in the experiment on BT-549 breast, 0.0939 µM and 0.168 µM. For the same compound, the TGI in the experiment with KM12 colon was above 100 µM; in the experiment on UO-31 renal, 2.13 µM and 3.35 µM; with OVCAR-8 ovarian it was 3.78 µM and > 10 µM; in the experiment with MCF7 breast, above 35.7 µM; with IGROV1 ovarian it was 1.68 µM and 1.97 µM; with 786-0 renal, 6.57 µM and 5.44 µM. Also, the TGI was 1.81 µM and 1.4 µM with SK-MEL-28 melanoma; 2.71 µM and 4.09 µM in the experiment on SF-539 CNS; 2 µM and 3.28 µM in the experiment with OVCAR-4 ovarian; 1.06 µM and 1.49 µM in the experiment on BT-549 breast.

`[O]=[W](=[O])([OH])[OH]`: the GI50 in the experiment with KM12 colon, with UO-31 renal, in the experiment with OVCAR-8 ovarian, in the experiment with MCF7 breast, in the experiment on IGROV1 ovarian and in the experiment on 786-0 renal was above 100 µM throughout. Besides, the GI50 in the experiment with SK-MEL-28 melanoma, in the experiment with SF-539 CNS, in the experiment on OVCAR-4 ovarian and in the experiment on BT-549 breast was above 100 µM each time. In addition, the TGI with KM12 colon, in the experiment on UO-31 renal, with OVCAR-8 ovarian, in the experiment with MCF7 breast, with IGROV1 ovarian and in the experiment on 786-0 renal was above 100 µM throughout. Also, the TGI in the experiment on SK-MEL-28 melanoma, with SF-539 CNS, in the experiment on OVCAR-4 ovarian and in the experiment with BT-549 breast was above 100 µM throughout.
